Results on 20 compounds are retold here after patent US11771709B2, “ALK protein degradation agent and anti-tumor application thereof” (ShanghaiTech University, priority 2017, dated 2023).

Each structure is given as a SMILES string.

The test system of the first test is SR (NPM-ALK) cells. The test can be described thus: Growth inhibition IC50 in ALCL SR cells (CCK8/WST, 72 hours).
Details: not given
The class given is cell-based.
Broadly, the IC50 is the concentration that gives 50% inhibition. Lower therefore signals greater potency. The compound `CCc1cc2c(cc1N1CCNCC1)C(C)(C)c1[nH]c3cc(C#N)ccc3c1C2=O` [Alectinib Analogue A, 9-ethyl-6,6-dimethyl-11-oxo-8-(piperazin-1-yl)-6,11-dihydro-5H-benzo[b]carbazole-3-carbonitrile, reference compound] gave an IC50 of 0.0024 µM.

Still in this test, the particulars now being: 72 h, SR cells, WST; Brigatinib-based PROTAD molecules (Table 3).
In the case of `COc1cc(N2CCC(NC(=O)CCOCCOCCOCCOCCOCCNc3cccc4c3C(=O)N(C3CCC(=O)NC3=O)C4=O)CC2)ccc1Nc1ncc(Cl)c(Nc2ccccc2P(C)(C)=O)n1` (centres unmarked) [SIAIS151117, N-(1-(4-((5-chloro-4-((2-(dimethylphosphoryl)phenyl)amino)pyrimidin-2-yl)amino)-3-methoxyphenyl)piperidin-4-yl)-1-((2-(2,6-dioxopiperidin-3-yl)-1,3-dioxoisoindolin-4-yl)amino)-3,6,9,12,15-pentaoxaoctadecan-18-amide], the IC50 is 0.0309 ± 0.0213 µM.

Staying with this test, now noted: SR cells, WST, 72 hours; Brigatinib-based PROTAD molecules (Table 3).
For the compound `COc1cc(N2CCNCC2)ccc1Nc1ncc(Cl)c(Nc2ccccc2P(C)(C)=O)n1` [Brigatinib Analogue A(SIAIS1197135), (2-((5-chloro-2-((2-methoxy-4-(piperazin-1-yl)phenyl)amino)pyrimidin-4-yl)amino)phenyl) dimethylphosphine oxide], the half-inhibitory concentration (IC50) came to 0.0016 ± 0.001 µM.

The same test, now with this note: SR cells, WST; Alectinib based ALK PROTAD compounds (Table 4).
As for `CCc1cc2c(cc1N1CCC(N)CC1)C(C)(C)c1[nH]c3cc(C#N)ccc3c1C2=O` [Alectinib Analogue B(SIAIS184193), 8-(4-aminopiperidin-1-yl)-9-ethyl-6,6-dimethyl-11-oxo-6,11-dihydro-5H-benzo[b]carbazole-3-carbonitrile], the IC50 was found to be 0.0147 µM.
The compound `CCc1cc2c(cc1N1CCC(N3CCNCC3)CC1)C(C)(C)c1[nH]c3cc(C#N)ccc3c1C2=O` [Alectinib Analogue C(SIAIS184192), 9-ethyl-6,6-dimethyl-11-oxo-8-(4-(piperazin-1-yl)piperidin-1-yl)-6,11-dihydro-5H-benzo[b]carbazole-3-carbonitrile] yielded an IC50 of 0.0191 µM.
`CCc1cc2c(cc1N1CCN(C(=O)CCNc3cccc4c3C(=O)N(C3CCC(=O)NC3=O)C4=O)CC1)C(C)(C)c1[nH]c3cc(C#N)ccc3c1C2=O` (centres unmarked) [SIAIS164029, 8-(4-(3-((2-(2,6-dioxopiperidin-3-yl)-1,3-dioxoisoindolin-4-yl)amino)propanoyl)piperazin-1-yl)-9-ethyl-6,6-dimethyl-11-oxo-6,11-dihydro-5H-benzo[b]carbazole-3-carbonitrile] displayed an IC50 of 0.0273 µM.
Still for that read-out and setting: the same measure for `CCc1cc2c(cc1N1CCN(C(=O)CCOCCOCCOCCC(=O)N[C@H](C(=O)N3C[C@H](O)C[C@H]3C(=O)NCc3ccc(-c4scnc4C)cc3)C(C)(C)C)CC1)C(C)(C)c1[nH]c3cc(C#N)ccc3c1C2=O` [SIAIS164037, (2S,4R)-1-((S)-2-(tert-butyl)-16-(4-(3-cyano-9-ethyl-6,6-dimethyl-11-oxo-6,11-dihydro-5H-benzo[b]carbazol-8-yl)piperazin-1-yl)-4,16-dioxo-7,10,13-trioxa-3-azahexadecanoyl)-4-hydroxy-N-(4-(4-methylthiazol-5-yl)benzyl)pyrrolidine-2-carboxamide]: 0.153 µM; for `CCc1cc2c(cc1N1CCN(C(=O)CCCCC(=O)N[C@H](C(=O)N3C[C@H](O)C[C@H]3C(=O)NCc3ccc(-c4scnc4C)cc3)C(C)(C)C)CC1)C(C)(C)c1[nH]c3cc(C#N)ccc3c1C2=O` [SIAIS164095, (2S,4R)-1-((S)-2-(6-(4-(3-cyano-9-ethyl-6,6-dimethyl-11-oxo-6,11-dihydro-5H-benzo[b]carbazol-8-yl)piperazin-1-yl)-6-oxohexanamido)-3,3-dimethylbutanoyl)-4-hydroxy-N-(4-(4-methylthiazol-5-yl)benzyl)pyrrolidine-2-carboxamide]: 0.0713 µM; for `CCc1cc2c(cc1N1CCN(C(=O)CCCCCC(=O)N[C@H](C(=O)N3C[C@H](O)C[C@H]3C(=O)NCc3ccc(-c4scnc4C)cc3)C(C)(C)C)CC1)C(C)(C)c1[nH]c3cc(C#N)ccc3c1C2=O` [SIAIS164096, (2S,4R)-1-((S)-2-(7-(4-(3-cyano-9-ethyl-6,6-dimethyl-11-oxo-6,11-dihydro-5H-benzo[b]carbazol-8-yl)piperazin-1-yl)-7-oxoheptanamido)-3,3-dimethylbutanoyl)-4-hydroxy-N-(4-(4-methylthiazol-5-yl)benzyl)pyrrolidine-2-carboxamide]: 0.0795 µM.
With `CCc1cc2c(cc1N1CCC(N3CCN(C(=O)CNc4cccc5c4C(=O)N(C4CCC(=O)NC4=O)C5=O)CC3)CC1)C(C)(C)c1[nH]c3cc(C#N)ccc3c1C2=O` (centres unmarked) [SIAIS184194, 8-(4-(4-((2-(2,6-dioxopiperidin-3-yl)-1,3-dioxoisoindolin-4-yl)glycyl)piperazin-1-yl)piperidin-1-yl)-9-ethyl-6,6-dimethyl-11-oxo-6,11-dihydro-5H-benzo[b]carbazole-3-carbonitrile], the half-maximal inhibitory concentration (IC50) is 0.0242 µM.
`CCc1cc2c(cc1N1CCC(NC(=O)CNc3cccc4c3C(=O)N(C3CCC(=O)NC3=O)C4=O)CC1)C(C)(C)c1[nH]c3cc(C#N)ccc3c1C2=O` (centres unmarked) [SIAIS219001, N-(1-(3-cyano-9-ethyl-6,6-dimethyl-11-oxo-6,11-dihydro-5H-benzo[b]carbazol-8-yl)piperidin-4-yl)-2-((2-(2,6-dioxopiperidin-3-yl)-1,3-dioxoisoindolin-4-yl)amino)acetamide] displayed an IC50 of 0.0213 µM.
Same read-out and setting: the same measure for `CCc1cc2c(cc1N1CCC(N3CCN(C(=O)CCCNc4cccc5c4C(=O)N(C4CCC(=O)NC4=O)C5=O)CC3)CC1)C(C)(C)c1[nH]c3cc(C#N)ccc3c1C2=O` (centres unmarked) [SIAIS219003, 8-(4-(4-(4-((2-(2,6-dioxopiperidin-3-yl)-1,3-dioxoisoindolin-4-yl)amino)butanoyl)piperazin-1-yl)piperidin-1-yl)-9-ethyl-6,6-dimethyl-11-oxo-6,11-dihydro-5H-benzo[b]carbazole-3-carbonitrile]: 0.0218 µM; for `CCc1cc2c(cc1N1CCC(N3CCN(C(=O)CCCCCNc4cccc5c4C(=O)N(C4CCC(=O)NC4=O)C5=O)CC3)CC1)C(C)(C)c1[nH]c3cc(C#N)ccc3c1C2=O` (centres unmarked) [SIAIS219004, 8-(4-(4-(6-((2-(2,6-dioxopiperidin-3-yl)-1,3-dioxoisoindolin-4-yl)amino)hexanoyl)piperazin-1-yl)piperidin-1-yl)-9-ethyl-6,6-dimethyl-11-oxo-6,11-dihydro-5H-benzo[b]carbazole-3-carbonitrile]: 0.0368 µM.
Compound `CCc1cc2c(cc1N1CCC(NC(=O)CCCNc3cccc4c3C(=O)N(C3CCC(=O)NC3=O)C4=O)CC1)C(C)(C)c1[nH]c3cc(C#N)ccc3c1C2=O` (centres unmarked) [SIAIS219010, N-(1-(3-cyano-9-ethyl-6,6-dimethyl-11-oxo-6,11-dihydro-5H-benzo[b]carbazol-8-yl)piperidin-4-yl)-4-((2-(2,6-dioxopiperidin-3-yl)-1,3-dioxoisoindolin-4-yl)amino)butanamide] came in with an IC50 of 0.0311 µM.
`CCc1cc2c(cc1N1CCC(NC(=O)CCCCCNc3cccc4c3C(=O)N(C3CCC(=O)NC3=O)C4=O)CC1)C(C)(C)c1[nH]c3cc(C#N)ccc3c1C2=O` (centres unmarked) [SIAIS219011, N-(1-(3-cyano-9-ethyl-6,6-dimethyl-11-oxo-6,11-dihydro-5H-benzo[b]carbazol-8-yl)piperidin-4-yl)-6-((2-(2,6-dioxopiperidin-3-yl)-1,3-dioxoisoindolin-4-yl)amino)hexanamide] gave a 50% inhibitory concentration (IC50) of 0.0499 µM.
The same measure, in the same setting: next, `CCc1cc2c(cc1N1CCC(N3CCN(C(=O)CCCCC(=O)N[C@H](C(=O)N4C[C@H](O)C[C@H]4C(=O)NCc4ccc(-c5scnc5C)cc4)C(C)(C)C)CC3)CC1)C(C)(C)c1[nH]c3cc(C#N)ccc3c1C2=O` [SIAIS219015, (2S,4R)-1-((S)-2-(6-(4-(1-(3-cyano-9-ethyl-6,6-dimethyl-11-oxo-6,11-dihydro-5H-benzo[b]carbazol-8-yl)piperidin-4-yl)piperazin-1-yl)-6-oxohexanamido)-3,3-dimethylbutanoyl)-4-hydroxy-N-(4-(4-methylthiazol-5-yl)benzyl)pyrrolidine-2-carboxamide]: 0.11 µM; `CCc1cc2c(cc1N1CCC(N3CCN(C(=O)CCCCCCCCC(=O)N[C@H](C(=O)N4C[C@H](O)C[C@H]4C(=O)NCc4ccc(-c5scnc5C)cc4)C(C)(C)C)CC3)CC1)C(C)(C)c1[nH]c3cc(C#N)ccc3c1C2=O` [SIAIS219016, (2S,4R)-1-((S)-2-(10-(4-(1-(3-cyano-9-ethyl-6,6-dimethyl-11-oxo-6,11-dihydro-5H-benzo[b]carbazol-8-yl)piperidin-4-yl)piperazin-1-yl)-10-oxodecanamido)-3,3-dimethylbutanoyl)-4-hydroxy-N-(4-(4-methylthiazol-5-yl)benzyl)pyrrolidine-2-carboxamide]: 0.0808 µM; `CCc1cc2c(cc1N1CCC(N3CCN(C(=O)CCOCCOCCNc4cccc5c4C(=O)N(C4CCC(=O)NC4=O)C5=O)CC3)CC1)C(C)(C)c1[nH]c3cc(C#N)ccc3c1C2=O` (centres unmarked) [SIAIS219018, 8-(4-(4-(3-(2-(2-((2-(2,6-dioxopiperidin-3-yl)-1,3-dioxoisoindolin-4-yl)amino)ethoxy)ethoxy)propanoyl)piperazin-1-yl)piperidin-1-yl)-9-ethyl-6,6-dimethyl-11-oxo-6,11-dihydro-5H-benzo[b]carbazole-3-carbonitrile]: 0.0133 µM.
As for `CCc1cc2c(cc1N1CCC(N3CCN(C(=O)CCOCCOCCOCCOCCNc4cccc5c4C(=O)N(C4CCC(=O)NC4=O)C5=O)CC3)CC1)C(C)(C)c1[nH]c3cc(C#N)ccc3c1C2=O` (centres unmarked) [SIAIS219019, 8-(4-(4-(1-((2-(2,6-dioxopiperidin-3-yl)-1,3-dioxoisoindolin-4-yl)amino)-3,6,9,12-tetraoxapentadecan-15-oyl)piperazin-1-yl)piperidin-1-yl)-9-ethyl-6,6-dimethyl-11-oxo-6,11-dihydro-5H-benzo[b]carbazole-3-carbonitrile], the IC50 is 0.0383 µM.
`CCc1cc2c(cc1N1CCC(NC(=O)CCCCC(=O)N[C@H](C(=O)N3C[C@H](O)C[C@H]3C(=O)NCc3ccc(-c4scnc4C)cc3)C(C)(C)C)CC1)C(C)(C)c1[nH]c3cc(C#N)ccc3c1C2=O` [SIAIS219020, N1-(1-(3-cyano-9-ethyl-6,6-dimethyl-11-oxo-6,11-dihydro-5H-benzo[b]carbazol-8-yl)piperidin-4-yl)-N6-((S)-1-((2S,4R)-4-hydroxy-2-((4-(4-methylthiazol-5-yl)benzyl)carbamoyl)pyrrolidin-1-yl)-3,3-dimethyl-1-oxobutan-2-yl)adipamide] displayed an IC50 of 0.0303 µM.
